Measurements published in patent US7964641B2, “Treatment of neurodegenerative conditions” (BTG International Limited, priority 2003, dated 2011).
Several values for one entry are separate records, joined by “and”; a condition that tells them apart may be missing. Equal entries are not always repeated. Entries after “also recorded” stand apart in the source; their conditions may differ. Marks after values point to notes of the source that are not given here.

Columns and labels:
[1] = tested on: CREAE; test: CREAE studies of structured lipids (SCH in SJL mice, MOG in C57BL mice); assay type: in vivo, C57B1/6 and SJL mice; conditions: for Efficacy at low dose (FIG. 20): low dose (50 ul, Study 6); for Severity of CREAE (in words): oral, Studies 2 to 7, 25-350 ul; for Shape of dose response: some of the studies
[2] = tested on: MOG-induced CREAE in SJL Mice; test: MOG-induced CREAE in SJL mice, forms of GLA (Table 3); assay type: in vivo; conditions: for Mean Clinical Score / No. with EAE: 100 μl of test lipid
[3] = tested on: brain and spinal cord lesions of EAE; conditions: GGG treated mice with histological scores 2 and 3
Source text: Animals were culled on PSD 25. […] Variation in the severity of changes between individual mice is summarised using a semi-quantitative five point grading system.

[4] = tested on: EAE; conditions: guinea pig, in vivo; cited from earlier work
[5] = tested on: EAE; conditions: depending on dose; cited from earlier work

**Q.** Which “Efficacy at low dose (FIG. 20)” value [1] does the source give for `CCCCC/C=C\C/C=C\C/C=C\CCCCC(=O)OC(COC(=O)CCCCCCCCC)COC(=O)CCCCCCCCC` [C-G-C, Glycerol 1,3-didecanoate 2-octadecatri(6-Z9-Z,12-Z)enoate] here?
**A.** Its value is “low dose efficacy”.

**Q.** And the “Severity of CREAE (in words)” value [1]?
**A.** The value was “capable of reducing severity of CREAE”.

**Q.** And the “Shape of dose response” value [1]?
**A.** The value was “bell shaped response curve”.

**Q.** What does the source list for `CCCCC/C=C/C/C=C/C/C=C/CCCCC(=O)OCC(COC(=O)CCCC/C=C/C/C=C/C/C=C/CCCCC)OC(=O)CCCC/C=C/C/C=C/C/C=C/CCCCC` [TG-GLA]?
**A.** Mean Clinical Score [2]: 1.0 ± 1.3^c; No. with EAE [2]: 3/6; Protective effect in CREAE (in words) ([2]; compared with borage oil): protective effects similar to that of the borage oil

**Q.** With `CCCCC/C=C\C/C=C\C/C=C\CCCCC(=O)OCC` [EE-GLA] as the compound, how does the “Mean Clinical Score” value [2] read?
**A.** The value was 3.0 ± 0.8.

**Q.** And the “No. with EAE” value [2]?
**A.** The value was 5/6.

**Q.** What does the source list for `CCCCC/C=C\C/C=C\C/C=C\CCCCC(=O)OCC(COC(=O)CCCC/C=C\C/C=C\C/C=C\CCCCC)OC(=O)CCCC/C=C\C/C=C\C/C=C\CCCCC` [G-G-G, glycerol tri-6,9,12-linolenate]?
**A.** EAE severity score of the mice with histological changes [3]: 1 and 1.5; Severity of CREAE (in words) [1]: capable of reducing severity of CREAE; Shape of dose response [1]: bell shaped response curve

**Q.** Which “Incidence and severity of EAE” value [4] does the source give for `CCCCC/C=C\C/C=C\CCCCCCCC(=O)O` [linoleic acid] here?
**A.** Its value is “partially suppresses”.

**Q.** And the “Protection in acute rat EAE” value [5]?
**A.** The value was “dose-dependent action on the clinical severity but did not abolish it”.

**Q.** With `CCCCC/C=C\C/C=C\C/C=C\CCCCCCC(=O)OC(COC(=O)CCCCCCCCC)COC(=O)CCCCCCCCC` [C-DHGLA-C, Glycerol 1,3-didecanoate2-eicosa-(8Z,11Z,14Z)-trienoate] as the compound, how does the “Efficacy at low dose (FIG. 20)” value [1] read?
**A.** Its value is “low dose efficacy”.

**Q.** And the “Severity of CREAE (in words)” value [1]?
**A.** The value was “capable of reducing severity of CREAE”.

**Q.** Which “Protection in acute rat EAE” value [5] does the source give for `CCCCC/C=C\C/C=C\C/C=C\CCCCC(=O)O` [γ-linolenic acid] here?
**A.** Its value is “fully protective”.

**Q.** For `CCCCC/C=C\C/C=C\C/C=C\C/C=C\CCCC(=O)OCC(COC(=O)CCC/C=C\C/C=C\C/C=C\C/C=C\CCCCC)OC(=O)CCC/C=C\C/C=C\C/C=C\C/C=C\CCCCC` [A-A-A, Glycerol trieicosotetra5-Z,8-Z,11-Z,14Z-eneoate], which “Severity of CREAE (in words)” value [1] is on record?
**A.** The value was “capable of reducing severity of CREAE”.

**Q.** Which “Severity of CREAE (in words)” value [1] does the source give for `CCCCC/C=C\C/C=C\C/C=C\C/C=C\CCCC(=O)OC(COC(=O)CCCCCCCCC)COC(=O)CCCCCCCCC` [C-A-C, Glycerol 1,3-didecanoate 2-eicosatetra-(5-Z,8-Z,11-Z,14-Z)enoate] here?
**A.** The value was “capable of reducing severity of CREAE”.

**Q.** Which “Severity of CREAE (in words)” value [1] does the source give for `CCCCC/C=C\C/C=C\C/C=C\CCCCC(=O)OCC(COC(=O)CCCC/C=C\C/C=C\C/C=C\CCCCC)OC(=O)CCCCCCCCC` [G-C-G, Glycerol 1,3-dioctadeca-(6Z,9Z,12Z)-trienoate 2-decanoate, reference compound] here?
**A.** The value was “failed to treat the condition; also recorded: lack of efficacy”.
